Assays:
SALL4A and SALL4B = experiment: SALL4 knock-down in endometrial cancer cells (Western blot, qRT-PCR); assay type: cell-based, human; conditions: AN3CA and HEC-1A
Source text: In brief, the expression plasmids for human SALL4A and SALL4B were constructed using FUW-Luc-mCh-puro vector (FIG. 43A). SALL4A or SALL4B mutant preserving the same amino acid sequence, but containing triple-point mutations within the SALL4shRNA1 target nucleotide sequence, which renders the transgenes resistant to SALL4 shRNA targeting, were generated using QuikChange site-directed mutagenesis kit (Stratagene) and confirmed by sequencing. Short hairpin RNAs set for human SALL4 in pLKO.1-puro vector were purchased from Open Biosystems (RHS3979) and knockdown efficiency was further evaluated. Two of them, designated as SALL4shRNA1 and SALL4shRNA 2, were selected for subsequent experiments. The sequences for SALL4 shRNAs and Scramble shRNA are listed as following: SALL4shRNA1: […] (SEQ ID NO: 3); SALL4shRNA 2: CTATTTAGCCAAAGGCAAA (SEQ ID NO: 2); Scr-shRNA: […] (SEQ ID NO: 14)
To assess the biological functional role of SALL4 in endometrial cancer, first evaluated was SALL4 expression in a panel of six endometrial cancer cell lines using quantitative real-time PCR to select for appropriate models for our functional studies (FIG. 40). […]

primary human AML cells = experiment: Xenotransplantation of shRNA-transduced primary human AML cells into NSG mice; assay type: in vivo
Source text: The phenotype of wt peptide treatment was then compared with that of downregulation of SALL4 in primary AML cells. SALL4-specific shRNA (7210 and 7412, FIG. 6A) validated by previous studies were used for these experiments. FACS analysis with Annexin V/PI staining confirmed that there was a 2-fold increase in cell apoptosis and cell death in vitro in primary AML cells when SALL4 expression was reduced (FIG. 6B). In addition, there was an increased survival of leukemic recipient mice in vivo upon knocking down of SALL4 expression in these primary AML samples (FIG. 6C). 1.5×10^6 SALL4 shRNA or control retrovirus-treated primary human AML cells were transplanted into sublethally irradiated (1.0 Gy) NOD/SCID/IL2rγ-null mice by tail vein injection. Fatal AML with onset ranging from one to three months developed in all control recipient (7 out of 7) and some SALL4 shRNA recipient (2 out of 6) mice after transplantation. The transplanted leukemia disease was characterized by immature blasts with human CD45 expression in peripheral blood, bone marrow, and tissues such as liver and spleen (FIGS. 6C-6F). […] While the median survival of control recipient mice (N=7) was 33 days, the median survival of SALL4 shRNA recipient mice (N=6) was 109 days. Both the Log rank (also called Mantel-Cox, P=0.03 (FIG. 4H) and Gehan-Breslow-Wilcoxon (P=0.01)) tests were used for survival analysis and were statistically significant.
NSG (NOD.Cg-Prkdcscid Il2rgtm 1Wjl/SzJ, The Jackson Laboratory, ME, USA) mice were bred and maintained in the Children's Hospital Boston animal facility. All animal work has been approved by and done according to the guidelines of the IACUC under protocol 10-10-1832. Human primary AML cells exposed to various peptides or carrier only (1.0×10^6 cells per mouse) or transduced with SALL4-shRNA or control lentivirus (1.5×10^6 cell per mouse) were transplanted into 10- to 12-week old mice received 135 cGy sublethal irradiation 2-4 h before the injection via the dorsal tail vein. Mice were euthanized when they became ill or at 78 days post-transplantation. BM was removed from the two femurs by flushing with RPMI1640 medium, spleen cells were abstained by mincing and filtering through a cell strainer and peripheral blood was collected from the heart. […] The percentage of human CD45+ cells was calculated as follows: % human CD45+ cells=No. human CD45+ cells/(No. human CD45+ cells+No. mouse CD45+ cells)×100. […]
SALL4 is critical for leukemic cell survival in the AML cell line NB4 (Yang, et al., Blood, 112:805-813 (2008)). […] 48 hours after transduction, the viability of cells was determined by flow cytometry after staining with Annexin V and propidium iodide (PI). […]

| Sequence | down-regulation of SALL4A and SALL4B (SALL4A and SALL4B) | recipient mice without leukemia / still healthy (primary human AML cells; four months after transplantation) | recipient mice that developed fatal AML / leukemia (primary human AML cells; mouse, in vivo) | human CD45 positive cells in non-leukemic recipients (primary human AML cells; peripheral blood, bone marrow or spleen) | median survival of recipient mice (primary human AML cells; transduced primary human AML cells, tail vein) [days] |
| --- | --- | --- | --- | --- | --- |
| CTATTTAGCCAAAGGCAAA (short hairpin RNA, chemistry and delivery not given here, further chemistry not given here) [E5 shRNA] | could down-regulate SALL4A and SALL4B efficiently | – | – | – | – |
| GATGCCTTGAAACAAGCCAAGCTACCTCA (chemistry not given here) [compound 7412, SALL4 shRNA used in primary AML cells] | – | four out of six | 2 out of 6 | less than 0.5% | 109 |
